# From patent US9403808B2, “Pyrazine derivatives” (Hoffmann-La Roche Inc., priority 2011, dated 2016)
# Where two headings read alike, the source gives them in different places.
# Key:
# human CB2 receptors = human CB2 receptors (Homo sapiens (Human), UniProt P34972); test: functional cAMP assay, CB2; format: cell-based
# Protocol: (§1) CHO cells expressing human CB1 or CB2 receptors are seeded 17-24 hours prior to the experiment 50.000 cells per well in a black 96 well plate with flat clear bottom (Corning Costar #3904) in DMEM (Invitrogen No. 31331), 1×HT supplement, with 10% fetal calf serum and incubated at 5% CO2 and 37° C. in a humidified incubator. The growth medium was exchanged with Krebs Ringer Bicarbonate buffer with 1 mM IBMX and incubated at 30° C. for 30 min. Compounds were added to a final assay volume of 100 μl and incubated for 30 min at 30° C. Using the cAMP-Nano-TRF detection kit the assay (Roche Diagnostics) was stopped by the addition of 50 μl lysis reagent (Tris, NaCl, 1.5% Triton X100, 2.5% NP40, 10% NaN3) and 50 μl detection solutions (20 μM mAb Alexa700-cAMP 1:1, and 48 μM Ruthenium-2-AHA-cAMP) and shaken for 2 h at room temperature. The time-resolved energy transfer is measured by a TRF reader (Evotec Technologies GmbH), equipped with a ND:YAG laser as excitation source. The plate is measured twice with the excitation at 355 nm and at the emission with a delay of 100 ns and a gate of 100 ns, total exposure time 10s at 730 (bandwidth 30 nm) or 645 nm (bandwidth 75 nm), respectively. The FRET signal is calculated as follows: FRET=T730-Alexa730-P(T645-B645) with P=Ru730-B730/Ru645-B645, where T730 is the test well measured at […], T645 is the test well measured at 645 nm, B730 and B645 are the buffer controls at 730 nm and 645 nm, respectively. cAMP content is determined from the function of a standard curve spanning from 10 μM to 0.13 nM cAMP.
# (§2) EC50 values were determined using Activity Base analysis (ID Business Solution, Limited). The EC50 values for a wide range of cannabinoid agonists generated from this assay were in agreement with the values published in the scientific literature.
# human CB1 receptors = human CB1 receptors (Homo sapiens (Human), UniProt P21554); test: functional cAMP assay, CB1; format: cell-based
# Chain of human CB1 receptors (P21554 whole entry): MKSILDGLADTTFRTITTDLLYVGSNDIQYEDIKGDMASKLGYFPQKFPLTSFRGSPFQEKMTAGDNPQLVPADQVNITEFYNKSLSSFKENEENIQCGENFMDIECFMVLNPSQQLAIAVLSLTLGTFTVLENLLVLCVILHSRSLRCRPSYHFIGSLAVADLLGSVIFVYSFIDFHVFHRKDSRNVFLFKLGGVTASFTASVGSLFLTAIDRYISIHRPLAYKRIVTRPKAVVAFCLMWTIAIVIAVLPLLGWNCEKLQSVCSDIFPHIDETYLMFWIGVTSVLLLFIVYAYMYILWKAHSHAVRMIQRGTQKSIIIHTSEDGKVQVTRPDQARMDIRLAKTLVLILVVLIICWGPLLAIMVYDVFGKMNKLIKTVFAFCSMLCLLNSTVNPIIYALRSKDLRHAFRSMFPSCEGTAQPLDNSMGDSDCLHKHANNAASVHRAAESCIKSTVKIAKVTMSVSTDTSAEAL
# Protocol: as §1, §2
# [1] = functional cAMP assay, CHO cells expressing human CB2, read-out: human CB2 EC50
# [2] = functional cAMP assay, CHO cells expressing human CB1, read-out: human CB1 EC50
# Chain of human CB2 receptors (P34972 whole entry): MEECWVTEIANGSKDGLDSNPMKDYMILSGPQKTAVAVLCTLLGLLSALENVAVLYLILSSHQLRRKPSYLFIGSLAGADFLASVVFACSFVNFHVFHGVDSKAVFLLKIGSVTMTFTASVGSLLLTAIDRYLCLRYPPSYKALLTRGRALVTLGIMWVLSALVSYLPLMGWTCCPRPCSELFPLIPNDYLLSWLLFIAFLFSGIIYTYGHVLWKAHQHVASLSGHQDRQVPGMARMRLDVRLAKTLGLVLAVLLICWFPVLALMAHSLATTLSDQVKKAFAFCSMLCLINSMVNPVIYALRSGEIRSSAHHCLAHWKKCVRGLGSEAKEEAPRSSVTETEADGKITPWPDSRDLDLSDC
SMILES,EC50 (human CB2 receptors; [1]) [nM],also measured
"NC(=O)[C@H]1CCCC[C@H]1NC(=O)c1cnc(N2CC(F)(F)C2)c(OCC2CC2)n1 (single isomer, unassigned) [Example 81]",,EC50 (human CB2 receptors): 31.2 nM
"Cc1nc([C@@H](NC(=O)c2cnc(C3CC3)c(OCC3CC3)n2)C2CC2)no1 (stereo in doubt) [Example 40, 5-Cyclopropyl-6-cyclopropylmethoxy-pyrazine-2-carboxylic acid [(SR)-cyclopropyl-(5-methyl-[1,2,4]oxadiazol-3-yl)-methyl]-amide]",,EC50 (human CB2 receptors): 30.8 nM; EC50 (human CB1 receptors): > 10000 nM
"Cc1nc([C@H](NC(=O)c2cnc(C3CC3)c(OCC3CC3)n2)C2CC2)no1 (stereo in doubt) [Example 41, 5-Cyclopropyl-6-cyclopropylmethoxy-pyrazine-2-carboxylic acid [(RS)-cyclopropyl-(5-methyl-[1,2,4]oxadiazol-3-yl)-methyl]-amide]",,EC50 (human CB2 receptors): 518 nM; EC50 (human CB1 receptors): > 10000 nM
"Cc1nc([C@@H](NC(=O)c2cnc(N3CC(F)(F)C3)c(OCC3CC3)n2)C2CC2)no1 (stereo in doubt) [Example 42, 6-Cyclopropylmethoxy-5-(3,3-difluoro-azetidin-1-yl)-pyrazine-2-carboxylic acid [(SR)-cyclopropyl-(5-methyl-[1,2,4]oxadiazol-3-yl)-methyl]-amide]",,EC50 (human CB2 receptors): 28 nM; EC50 (human CB1 receptors): > 10000 nM
"Cc1nc([C@H](NC(=O)c2cnc(N3CC(F)(F)C3)c(OCC3CC3)n2)C2CC2)no1 (stereo in doubt) [Example 43, 6-Cyclopropylmethoxy-5-(3,3-difluoro-azetidin-1-yl)-pyrazine-2-carboxylic acid [(RS)-cyclopropyl-(5-methyl-[1,2,4]oxadiazol-3-yl)-methyl]-amide]",,EC50 (human CB2 receptors): 40.9 nM; EC50 (human CB1 receptors): > 10000 nM
"Cc1nc(C(C)(C)NC(=O)c2cnc(C3CC3)c(-c3cccc(Cl)c3)n2)no1 [Example 1, 6-(3-Chloro-phenyl)-5-cyclopropyl-pyrazine-2-carboxylic acid [1-methyl-1-(5-methyl-[1,2,4]oxadiazol-3-yl)-ethyl]amide]",88.1,EC50 (human CB1 receptors; [2]): 1150 nM
"CC(C)(C#N)NC(=O)c1cnc(C2CC2)c(-c2cccc(Cl)c2)n1 [Example 2, 6-(3-Chloro-phenyl)-5-cyclopropyl-pyrazine-2-carboxylic acid (cyano-dimethyl-methyl)-amide]",104,EC50 (human CB1 receptors; [2]): > 10000 nM
"Cc1nc(C2(NC(=O)c3cnc(C4CC4)c(-c4cccc(Cl)c4)n3)CCC2)no1 [Example 3, 6-(3-Chloro-phenyl)-5-cyclopropyl-pyrazine-2-carboxylic acid [1-(5-methyl-[1,2,4]oxadiazol-3-yl)-cyclobutyl]-amide]",156,EC50 (human CB1 receptors; [2]): > 10000 nM
"Cc1nc(C(C)(C)NC(=O)c2cnc(N3CC(F)(F)C3)c(-c3cccc(Cl)c3)n2)no1 [Example 4, 6-(3-Chloro-phenyl)-5-(3,3-difluoro-azetidin-1-yl)-pyrazine-2-carboxylic acid [1-methyl-1-(5-methyl-[1,2,4]oxadiazol-3-yl)-ethyl]-amide]",108,EC50 (human CB1 receptors; [2]): > 10000 nM
"Cc1nc(C(C)(C)NC(=O)c2cnc(N3CCC3)c(-c3cccc(Cl)c3)n2)no1 [Example 5, 5-Azetidin-1-yl-6-(3-chloro-phenyl)-pyrazine-2-carboxylic acid [1-methyl-1-(5-methyl-[1,2,4]oxadiazol-3-yl)-ethyl]-amide]",140,EC50 (human CB1 receptors; [2]): > 10000 nM
"CC(C)(NC(=O)c1cnc(C2CC2)c(-c2cccc(Cl)c2)n1)c1nccs1 [Example 6, 6-(3-Chloro-phenyl)-5-cyclopropyl-pyrazine-2-carboxylic acid (1-methyl-1-thiazol-2-yl-ethyl)-amide]",48,EC50 (human CB1 receptors; [2]): 892 nM
"O=C(NN1CCCCC1)c1cnc(C2CC2)c(-c2cccc(Cl)c2)n1 [Example 7, 6-(3-Chloro-phenyl)-5-cyclopropyl-pyrazine-2-carboxylic acid piperidin-1-ylamide]",255,EC50 (human CB1 receptors; [2]): > 10000 nM
"NC(=O)[C@@H](NC(=O)c1cnc(C2CC2)c(OCC2CC2)n1)c1ccc(F)cc1 [Example 63, 5-Cyclopropyl-6-cyclopropylmethoxy-pyrazine-2-carboxylic acid [(S)-carbamoyl-(4-fluoro-phenyl)-methyl]-amide]",96.6,
"NC(=O)[C@@H](NC(=O)c1cnc(N2CC(F)(F)C2)c(OCC2CC2)n1)c1ccc(F)cc1 [Example 64, 6-Cyclopropylmethoxy-5-(3,3-difluoro-azetidin-1-yl)-pyrazine-2-carboxylic acid [(S)-carbamoyl-(4-fluoro-phenyl)-methyl]-amide]",31.2,
"Cc1nc([C@H](CC2CC2)NC(=O)c2cnc(C3CC3)c(OCC3CC3)n2)no1 [Example 65, 5-Cyclopropyl-6-cyclopropylmethoxy-pyrazine-2-carboxylic acid [(S)-2-cyclopropyl-1-(5-methyl-[1,2,4]oxadiazol-3-yl)-ethyl]-amide]",20.7,
"COC(=O)[C@H](CC(C)C)NC(=O)c1cnc(N2CC(F)(F)C2)c(OCC2CC2)n1 [Example 66, (S)-2-{[6-Cyclopropylmethoxy-5-(3,3-difluoro-azetidin-1-yl)-pyrazine-2-carbonyl]-amino}-4-methyl-pentanoic acid methyl ester]",0.4,
"CC(C)C[C@H](NC(=O)c1cnc(N2CC(F)(F)C2)c(OCC2CC2)n1)C(=O)NCC(F)(F)F [Example 67, 6-Cyclopropylmethoxy-5-(3,3-difluoro-azetidin-1-yl)-pyrazine-2-carboxylic acid [(S)-3-methyl-1-(2,2,2-trifluoro-ethylcarbamoyl)-butyl]-amide]",57.6,
"NC(=O)[C@@H](NC(=O)c1cnc(N2CC(F)(F)C2)c(OCC2CC2)n1)c1ccc(Cl)cc1 [Example 68, 6-Cyclopropylmethoxy-5-(3,3-difluoro-azetidin-1-yl)-pyrazine-2-carboxylic acid [(S)-carbamoyl-(4-chloro-phenyl)-methyl]-amide]",116,
"CC(C)(CCCO)NC(=O)c1cnc(C2CC2)c(OCC2CC2)n1 [Example 69, 5-Cyclopropyl-6-cyclopropylmethoxy-pyrazine-2-carboxylic acid (4-hydroxy-1,1-dimethyl-butyl)-amide]",47.4,
"Cc1oc(-c2ccccc2)nc1CC(C)(C)NC(=O)c1cnc(C2CC2)c(OCC2CC2)n1 [Example 71, 5-Cyclopropyl-6-cyclopropylmethoxy-pyrazine-2-carboxylic acid [1,1-dimethyl-2-(5-methyl-2-phenyl-oxazol-4-yl)-ethyl]-amide]",201,
"CC(CC(C)(C)NC(=O)c1cnc(C2CC2)c(OCC2CC2)n1)c1ccncc1 (stereo not drawn) [Example 72, 5-Cyclopropyl-6-cyclopropylmethoxy-pyrazine-2-carboxylic acid (1,1-dimethyl-3-pyridin-4-yl-butyl)-amide]",92.6,
"COC(=O)C1(NC(=O)c2cnc(N3CC(F)(F)C3)c(OCC3CC3)n2)CCC1 [Example 73, 1-{[6-Cyclopropylmethoxy-5-(3,3-difluoro-azetidin-1-yl)-pyrazine-2-carbonyl]-amino}-cyclobutanecarboxylic acid methyl ester]",20.5,
"CC(C)[C@H](CC(N)=O)NC(=O)c1cnc(C2CC2)c(OCC2CC2)n1 [Example 76, 5-Cyclopropyl-6-cyclopropylmethoxy-pyrazine-2-carboxylic acid ((S)-1-carbamoylmethyl-2-methyl-propyl)-amide]",16.3,
"CC(C)[C@H](CC(N)=O)NC(=O)c1cnc(N2CC(F)(F)C2)c(OCC2CC2)n1 [Example 77, 6-Cyclopropylmethoxy-5-(3,3-difluoro-azetidin-1-yl)-pyrazine-2-carboxylic acid ((S)-1-carbamoylmethyl-2-methyl-propyl)-amide]",6.5,
"Cc1nc([C@](C)(CC2CC2)NC(=O)c2cnc(N3CC(F)(F)C3)c(OCC3CC3)n2)no1 [Example 78, (+)-6-Cyclopropylmethoxy-5-(3,3-difluoro-azetidin-1-yl)-pyrazine-2-carboxylic acid [2-cyclopropyl-1-methyl-1-(5-methyl-[1,2,4]oxadiazol-3-yl)-ethyl]-amide]",17.4,
"Cc1nc([C@@](C)(CC2CC2)NC(=O)c2cnc(N3CC(F)(F)C3)c(OCC3CC3)n2)no1 [Example 79, (−)-6-Cyclopropylmethoxy-5-(3,3-difluoro-azetidin-1-yl)-pyrazine-2-carboxylic acid [2-cyclopropyl-1-methyl-1-(5-methyl-[1,2,4]oxadiazol-3-yl)-ethyl]-amide]",4,
NC(=O)[C@@H]1CCCC[C@@H]1NC(=O)c1cnc(C2CC2)c(OCC2CC2)n1 [Example 82],257,
NC(=O)[C@H]1CCCC[C@H]1NC(=O)c1cnc(C2CC2)c(OCC2CC2)n1 [Example 83],44.4,
